Measured values from US9212143B2, “Small molecule inhibitors of protein kinases” (priority 2010, dated 2015).

Tests used:
Assay type in all cases: cell-based, human
[1] = tested on: syk phosphorylation in integrin/TNF stimulated neutrophils; assay: syk phosphorylation in integrin/TNF stimulated neutrophils (in cell Western); conditions: 10 ug/ml compound, TNFα 200 ng/ml, 1 hr; FIG. 11
Method: Inhibition of syk phosphorylation was tested using the FACEMaker in cell Western Blot kit from Active Motif (Carlsbad, Calif.). In this assay, freshly isolated neutrophils were plated onto fibrinogen coated wells and stimulated with TNF at 200 ng/ml. After 1 hr., cells were fixed in formaldehyde and the Western Blot performed according to the kit instructions, with the final colorimetric product read in a plate reader. Results were corrected for cell number by subsequent staining of the cells with crystal violet and recording OD at 630 nm.
Neutrophils were isolated from healthy human donors using Polymorphprep (Axis Shield). Cells were equilibrated for 15 minutes at 37° C. in the presence or absence of 10 ug/ml compound. TNFα was added to a concentration of 200 ng/ml and cells dispensed into a 96 well strip plate previously coated with 2 mg/ml fibrinogen at 1×10^6 cells/well. Reactions were incubated at 37° C. for 1 hr., and cells fixed with 4% formaldehyde for 20 minutes at room temperature. […] The reaction was developed using the kit developing solution and the resulting colorimetric product read in a plate reader at 450 nm with a 650 nm reference. […]

[2] = tested on: TNF/antineutrophil cytoplasmic antibody stimulated neutrophils; assay: Respiratory burst in TNF/antineutrophil cytoplasmic antibody stimulated neutrophils (cytochrome c reduction); conditions: 10 ug/ml compound, TNFα 200 ng/ml, anti-MPO or anti-Pr3; FIGS. 5 and 6
Method: During the respiratory burst of activated neutrophils, reactive oxygen intermediates such as superoxide anion, hydroxyl radical, and hydrogen peroxide are produced. To determine the ability of compounds to affect syk dependent respiratory burst, superoxide anion production was measured in a microplate assay using the reduction of cytochrome c as a reporter assay. Respiratory burst can be induced through two different syk dependent signaling pathways, integrin mediated and Fc Receptor mediated. Compounds were tested in both pathways.
For respiratory burst assays, neutrophils (1×10^6) were added to microtiter plates that were coated with fibrinogen for integrin signaling or uncoated for Fc receptor signaling. […] At the end of the incubations, reduction of cytochrome c was quantified by measuring absorbance at 550 nm using a microplate reader. […]
(§1) Neutrophils were isolated from healthy human donors using Polymorphprep (Axis Shield). […] Reduction of cytochrome c was measured by reading absorbance at 550 nm with a 490 nm reference in a spectrophotometer. […]
as §1

neutrophils = assay: Zymosan phagocytosis by neutrophils (CytoSelect 96-Well Phagocytosis Assay); conditions: 10 ug/ml compound, zymosan 1.5 hrs; FIG. 10
Method: Inhibition of phagocytosis was carried out using the CytoSelect™ 96-Well Phagocytosis Assay (Cell Biolabs, Inc). The phagocytic target was zymosan (Saccharomyces cerevisiae), made from yeast cell wall. For this assay, neutrophils were seeded onto fibrinogen coated wells in the presence of inhibitor. Zymosan was added, and reactions incubated for 1.5 hr. Phagocytosis was detected by permeabilizing the cells and adding a detection reagent that was quantified colorimetrically in a plate reader at 405 nm.
Neutrophils were isolated from healthy human donors using Polymorphprep (Axis Shield). Cells were equilibrated for 15 minutes at 37° C. in the presence or absence of 10 ug/ml compound, then plated into 96 well plates previously coated with 2 ng/ml fibrinogen. The subsequent phagocytosis assay was carried out using a commercial phagocytosis assay (CytoSelect™ 96-Well Phagocytosis Assay (Zymosan), Cell Biolabs.) Briefly, cells were incubated with zymosan at 37° C. for 1.5 hrs., fixed with 8% formaldehyde for 5 minutes at room temperature, blocked, permeabilized and detection reagent added which detects phagocytosed zymosan. The reaction was developed by adding a substrate and the resulting colorimetric product was detected in a plate reader. ODs were corrected for relative confluence of the cells based on a visual estimate of confluence. Results are reported as corrected ODs.

Q: `N#Cc1c(C(F)(F)F)cc(-c2ccc(Br)cc2)nc1SC(C(=O)O)c1ccccc1` (stereo not drawn) [Compound 1, α-[[6-(4-bromophenyl)-3-cyano-4-(trifluoromethyl)-2-pyridinyl]thio]-benzeneacetic acid] was tested. Which “inhibition of syk phosphorylation in integrin/TNF stimulated neutrophils” value [1] did it give?
A: inhibition

Q: And the “respiratory burst in TNF/antineutrophil cytoplasmic antibody stimulated neutrophils” value [2]?
A: stimulation

Q: What about the “inhibition of zymosan phagocytosis by neutrophils” value (neutrophils) of the same molecule?
A: inhibition
